Test results: publication PMC9090415, “Discovery of small molecule inhibitors of Plasmodium falciparum apicoplast DNA polymerase” (Journal of Enzyme Inhibition and Medicinal Chemistry, 2022)

Target: P. falciparum apicoplast DNA polymerase (Pf-apPOL) (Plasmodium falciparum, UniProt Q8ILY1)
Assay: Fluorescence-based high-throughput DNA polymerase assay (molecular beacon), primary screen and dose-response
Format: biochemical
Details: for DNA Pol: 90 min, 10 µM; for IC50: supplemental file 2, sheet IC50 nontoxic compounds, Pf-apPOL
Summary of the method: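 Single-point screening used 10 µM compound with 20 nM polymerase, 20 nM hairpin substrate and 6 µM dNTPs for 90 min at 25 °C. Confirmatory titrations (2.5–80 µM) followed fluorescence at three times, and IC50 was derived from a fit including a cooperativity term n.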

P. falciparum apicoplast DNA polymerase (Pf-apPOL), sequence (Q8ILY1 entry or part of it): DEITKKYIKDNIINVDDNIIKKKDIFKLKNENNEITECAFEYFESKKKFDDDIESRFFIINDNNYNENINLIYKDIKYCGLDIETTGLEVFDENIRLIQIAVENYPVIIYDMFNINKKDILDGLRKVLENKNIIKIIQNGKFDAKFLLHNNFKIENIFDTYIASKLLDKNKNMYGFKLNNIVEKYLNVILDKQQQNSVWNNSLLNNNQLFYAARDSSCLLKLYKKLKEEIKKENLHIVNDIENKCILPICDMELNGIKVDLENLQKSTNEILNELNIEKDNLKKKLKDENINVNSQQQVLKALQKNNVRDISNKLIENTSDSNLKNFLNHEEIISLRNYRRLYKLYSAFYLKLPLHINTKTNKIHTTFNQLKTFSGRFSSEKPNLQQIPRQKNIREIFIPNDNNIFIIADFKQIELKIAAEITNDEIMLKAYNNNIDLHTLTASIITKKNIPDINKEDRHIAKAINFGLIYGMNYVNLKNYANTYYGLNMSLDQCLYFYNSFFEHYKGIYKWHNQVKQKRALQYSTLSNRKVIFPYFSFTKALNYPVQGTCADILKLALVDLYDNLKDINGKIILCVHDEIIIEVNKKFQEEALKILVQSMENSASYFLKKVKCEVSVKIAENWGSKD

With `O=C(Nc1cccc(C(=O)Nc2ccc(S(=O)(=O)[O-])c3cc(S(=O)(=O)[O-])cc(S(=O)(=O)[O-])c23)c1)Nc1cccc(C(=O)Nc2ccc(S(=O)(=O)[O-])c3cc(S(=O)(=O)[O-])cc(S(=O)(=O)[O-])c23)c1.[Na+].[Na+].[Na+].[Na+].[Na+].[Na+]` [Molecule 39, O=C(Nc1cccc(c1)C(=O)Nc1ccc(c2c1c(cc(c2)S(=O)(=O)[O-])S(=O)(=O)[O-])S(=O)(=O)[O-])Nc1cccc(c1)C(=O)Nc1ccc(c2c1c(cc(c2)S(=O)(=O)[O-])S(=O)(=O)[O-])S(=O)(=O)[O-].[Na+].[Na+].[Na+].[Na+].[Na+].[Na+]] the “DNA Pol” value ('DNA Pol' of the 186 hits list (primary screen result), unit not given) was 94, the “% inhibition Apo pol 10'” value (DRC-1, concentration 2.5) was 28.0363% and the “% inhibition Apo pol 10'” value (DRC-1, concentration 5) was 43.2303%. The “% inhibition Apo pol 10'” value (DRC-1, concentration 10) was 60.7681%, the “% inhibition Apo pol 10'” value (DRC-1, concentration 20) was 81.9365% and the “% inhibition Apo pol 10'” value (DRC-1, concentration 40) was 96.2832%. For the same compound, the “% inhibition Apo pol 10'” value (DRC-1, concentration 80) was 99.222%, the “% inhibition Apol 90'” value (DRC-1, 90', concentration 2.5) was -1.332% and the “% inhibition Apol 90'” value (DRC-1, 90', concentration 5) was 6.063%. For the same compound, the “% inhibition Apol 90'” value (DRC-1, 90', concentration 10) was 22.6686%, the “% inhibition Apol 90'” value (DRC-1, 90', concentration 20) was 56.1821% and the “% inhibition Apol 90'” value (DRC-1, 90', concentration 40) was 89.9026%. The “% inhibition Apol 90'” value (DRC-1, 90', concentration 80) was 98.7402%, the “% inhibition apPOL 180'” value (DRC-1, concentration 2.5) was -3.025% and the “% inhibition apPOL 180'” value (DRC-1, concentration 5) was 1.181%. The “% inhibition apPOL 180'” value (DRC-1, concentration 10) was 16.2132%, the “% inhibition apPOL 180'” value (DRC-1, concentration 20) was 51.6229% and the “% inhibition apPOL 180'” value (DRC-1, concentration 40) was 87.2271%. The “% inhibition apPOL 180'” value (DRC-1, concentration 80) was 98.5627%, the “% inhibition Apol 40'” value (DRC-2, 40', concentration 20 (unit not given)) was 56% and the “% inhibition ApPOL 90'” value (DRC-2, 90', concentration 20 (unit not given)) was 56%. For the same compound, the “% inhibition Apo pol 5'” value (DRC-2, concentration 2.5) was 12%, the “% inhibition Apo pol 5'” value (DRC-2, concentration 5) was 23% and the “% inhibition Apo pol 5'” value (DRC-2, concentration 10) was 41%. For the same compound, the “% inhibition Apo pol 5'” value (DRC-2, concentration 20) was 52%, the “% inhibition Apo pol 5'” value (DRC-2, concentration 40) was 59% and the “% inhibition Apo pol 5'” value (DRC-2, concentration 80) was 63%. The “% inhibition Apol 40'” value (DRC-2, 40', concentration 2.5) was -11%, the “% inhibition Apol 40'” value (DRC-2, 40', concentration 5) was 4.26% and the “% inhibition Apol 40'” value (DRC-2, 40', concentration 10) was 29%. For the same compound, the “% inhibition Apol 40'” value (DRC-2, 40', concentration 20) was 56%, the “% inhibition Apol 40'” value (DRC-2, 40', concentration 40) was 75% and the “% inhibition Apol 40'” value (DRC-2, 40', concentration 80) was 79%. For the same compound, the “% inhibition ApPOL 90'” value (DRC-2, 90', concentration 2.5) was -13%, the “% inhibition ApPOL 90'” value (DRC-2, 90', concentration 5) was 1% and the “% inhibition ApPOL 90'” value (DRC-2, 90', concentration 10) was 28%. The “% inhibition ApPOL 90'” value (DRC-2, 90', concentration 20) was 56%, the “% inhibition ApPOL 90'” value (DRC-2, 90', concentration 40) was 78% and the “% inhibition ApPOL 90'” value (DRC-2, 90', concentration 80) was 83%. For the same compound, the “% inhibition apPOL 180'” value (DRC-2, concentration 2.5) was -3.36%, the “% inhibition apPOL 180'” value (DRC-2, concentration 5) was 7.57% and the “% inhibition apPOL 180'” value (DRC-2, concentration 10) was 31%. The “% inhibition apPOL 180'” value (DRC-2, concentration 20) was 58%, the “% inhibition apPOL 180'” value (DRC-2, concentration 40) was 80% and the “% inhibition apPOL 180'” value (DRC-2, concentration 80) was 86%. The “DNA Pol” value (primary screen value of the library well, unit not given) was 94.
In the case of `O=C(Nc1cccc(C(=O)Nc2ccc(S(=O)(=O)O)c3cc(S(=O)(=O)O)cc(S(=O)(=O)O)c23)c1)Nc1cccc(C(=O)Nc2ccc(S(=O)(=O)O)c3cc(S(=O)(=O)O)cc(S(=O)(=O)O)c23)c1` [Molecule 39], the IC50 is reported as 6.77 µM.
In the case of `Cc1cccc(-c2nnc3ccc(NS(=O)(=O)c4ccc(C)c(C)c4)nn23)c1` [Molecule 40, Cc1cccc(c1)c1nnc2n1nc(cc2)NS(=O)(=O)c1ccc(c(c1)C)C], the “% inhibition Apo pol 10'” value (DRC-1, concentration 2.5) is reported as 17.5333%, the “% inhibition Apo pol 10'” value (DRC-1, concentration 5) is reported as 15.8571% and the “% inhibition Apo pol 10'” value (DRC-1, concentration 10) is reported as 58.8718%. The “% inhibition Apo pol 10'” value (DRC-1, concentration 20) was 64.4117%, the “% inhibition Apo pol 10'” value (DRC-1, concentration 40) was 83.8171% and the “% inhibition Apo pol 10'” value (DRC-1, concentration 80) was 87.6455%. The “% inhibition Apol 90'” value (DRC-1, 90', concentration 2.5) was 8.645%, the “% inhibition Apol 90'” value (DRC-1, 90', concentration 5) was 6.674% and the “% inhibition Apol 90'” value (DRC-1, 90', concentration 10) was 42.202%. The “% inhibition Apol 90'” value (DRC-1, 90', concentration 20) was 48.6788%, the “% inhibition Apol 90'” value (DRC-1, 90', concentration 40) was 74.666% and the “% inhibition Apol 90'” value (DRC-1, 90', concentration 80) was 86.8335%. The “% inhibition apPOL 180'” value (DRC-1, concentration 2.5) was 2.98%, the “% inhibition apPOL 180'” value (DRC-1, concentration 5) was 3.293% and the “% inhibition apPOL 180'” value (DRC-1, concentration 10) was 32.359%. The “% inhibition apPOL 180'” value (DRC-1, concentration 20) was 37.8584%, the “% inhibition apPOL 180'” value (DRC-1, concentration 40) was 67.3017% and the “% inhibition apPOL 180'” value (DRC-1, concentration 80) was 87.5255%. For the same compound, the “% inhibition Apo pol 5'” value (DRC-2, concentration 2.5) was 5%, the “% inhibition Apo pol 5'” value (DRC-2, concentration 5) was 15% and the “% inhibition Apo pol 5'” value (DRC-2, concentration 10) was 22%. For the same compound, the “% inhibition Apo pol 5'” value (DRC-2, concentration 20) was 26%, the “% inhibition Apo pol 5'” value (DRC-2, concentration 40) was 22% and the “% inhibition Apo pol 5'” value (DRC-2, concentration 80) was 17%. For the same compound, the “% inhibition Apol 40'” value (DRC-2, 40', concentration 2.5) was 4.3%, the “% inhibition Apol 40'” value (DRC-2, 40', concentration 5) was 18% and the “% inhibition Apol 40'” value (DRC-2, 40', concentration 10) was 30%. The “% inhibition Apol 40'” value (DRC-2, 40', concentration 20) was 44%, the “% inhibition Apol 40'” value (DRC-2, 40', concentration 40) was 51% and the “% inhibition Apol 40'” value (DRC-2, 40', concentration 80) was 53%. The “% inhibition ApPOL 90'” value (DRC-2, 90', concentration 2.5) was 3.29%, the “% inhibition ApPOL 90'” value (DRC-2, 90', concentration 5) was 17% and the “% inhibition ApPOL 90'” value (DRC-2, 90', concentration 10) was 29%. The “% inhibition ApPOL 90'” value (DRC-2, 90', concentration 20) was 46%, the “% inhibition ApPOL 90'” value (DRC-2, 90', concentration 40) was 57% and the “% inhibition ApPOL 90'” value (DRC-2, 90', concentration 80) was 62%. For the same compound, the “% inhibition apPOL 180'” value (DRC-2, concentration 2.5) was -0.478%, the “% inhibition apPOL 180'” value (DRC-2, concentration 5) was 11% and the “% inhibition apPOL 180'” value (DRC-2, concentration 10) was 23%. The “% inhibition apPOL 180'” value (DRC-2, concentration 20) was 40%, the “% inhibition apPOL 180'” value (DRC-2, concentration 40) was 60% and the “% inhibition apPOL 180'” value (DRC-2, concentration 80) was 68%. For the same compound, the “% inhibition ApPOL 90'” value (conc. 5, 90', DRC-2) was 17%, the “% inhibition Apo pol 5'” value (conc. 10, DRC-2) was 22% and the “% inhibition Apo pol 5'” value (conc. 40, DRC-2) was 22%. For the same compound, the “% inhibition Apo pol 5'” value (conc. 80, DRC-2) was 17%, the “DNA Pol” value (primary screen value by plate and well) was 50 and the “DNA Pol” value (primary screen value of the 186 hits, unit not given) was 50.
Compound `Cc1cccc(-c2nnc3ccc(NS(=O)(=O)c4ccc(C)c(C)c4)nn23)c1` [Molecule 40] has an IC50 of 10.1 µM.
